Source: patent publication US11667602B2, “Compounds and their use” (AstraZeneca AB, priority 2020, dated 2023)
Like-named read-outs stand apart in the source and are kept apart here.

Molecular target: T1, human RXFP1 (Homo sapiens, UniProt Q9HBX9)
T1 sequence (Q9HBX9 1-757): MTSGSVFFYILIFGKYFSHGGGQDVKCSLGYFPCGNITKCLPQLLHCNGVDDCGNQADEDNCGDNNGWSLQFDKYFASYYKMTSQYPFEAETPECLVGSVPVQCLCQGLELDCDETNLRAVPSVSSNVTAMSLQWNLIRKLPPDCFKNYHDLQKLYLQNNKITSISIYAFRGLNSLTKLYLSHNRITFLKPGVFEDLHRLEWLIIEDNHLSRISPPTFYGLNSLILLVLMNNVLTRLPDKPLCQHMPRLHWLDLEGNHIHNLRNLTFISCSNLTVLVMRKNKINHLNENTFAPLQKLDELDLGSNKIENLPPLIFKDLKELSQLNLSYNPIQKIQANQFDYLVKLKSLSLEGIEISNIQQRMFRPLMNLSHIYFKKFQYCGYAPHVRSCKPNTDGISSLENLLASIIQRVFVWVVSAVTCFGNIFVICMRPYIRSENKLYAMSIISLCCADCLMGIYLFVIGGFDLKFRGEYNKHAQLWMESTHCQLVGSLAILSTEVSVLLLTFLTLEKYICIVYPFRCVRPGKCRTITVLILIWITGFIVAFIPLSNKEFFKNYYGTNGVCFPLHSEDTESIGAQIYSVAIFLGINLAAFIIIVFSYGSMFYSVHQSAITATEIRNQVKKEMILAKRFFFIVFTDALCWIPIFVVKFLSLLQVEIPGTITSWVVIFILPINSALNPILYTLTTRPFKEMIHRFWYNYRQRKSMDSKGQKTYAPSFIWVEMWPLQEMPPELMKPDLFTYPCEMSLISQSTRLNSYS
Test: RXFP1 Hu cAMP (Test A)
Assay type: cell-based
Design: expressed in transfected cells; host or cells: Jump-In T-REx CHO-K1 cells (ThermoFisher), induced with 10 ng/ml doxycycline for 24 h
Text: To screen for modulators of hRXFP1, an assay identifying compounds that stimulate cAMP production via the Gs-coupled hRXFP1 receptor was used. cAMP HiRange HTRF kit (available from CisBio Bioassays, France; catalogue number 62AM6PEJ) was employed in large according to manufacturer's recommendations for detection of cAMP. The HTRF method is a competitive immunoassay between native cAMP produced by cells and cAMP labeled with the dye d2. The tracer binding is visualized with a cryptate labeled antibody for cAMP and the signal is thus inversely proportional to the amount of produced cAMP.
Cells: Jump-In™ T-REx™ CHO-K1 Cells (ThermoFisher) stably transfected with human RXFP1 was employed. Cells were induced to express human RXFP1 by treatment with 10 ng/ml doxycycline for 24 h. Cells were then cryopreserved for long term storage.
HTRF detection reagents: cAMP-d2 and anti-cAMP cryptate reconstituted according to CisBio instructions were diluted 1:40 in lysis buffer provided with the HTRF-kit.
3. 4 μL assay buffer with 1 mM IBMX (0.5 mM final concentration) to block phosphodiesterases was added with Multidrop Combi (ThermoFisher).
6. 4 μL cAMP-d2 in lysis buffer was added with Multidrop Combi.
7. 4 μL anti-cAMP cryptate in lysis buffer was added with Multidrop Combi
8. 2 h incubation at room temperature
Using a cAMP standard curve, HTRF data was converted to amount cAMP produced in the samples which was subsequentially used for calculation of concentration responses. Concentration response data were fitted with a four parameter logistic fit, the Hill equation. The results from the assay are reported in Table 36 as EC50 (μM) and Sinf (%).
Where the assay was run multiple times for the same compound, the geometric mean is reported.
Sinf is the fitted activity level, efficacy, at infinite concentration of test compound. To facilitate comparison of efficacy data, efficacy was normalized to % effect of the response stimulated by a saturating concentration of relaxin (1 nM). Where the assay was run multiple times for the same compound, the arithmetic mean is reported.

[1] = RXFP1 Hu cAMP, read-out: Test A EC50

Compound | Test A Sinf (RXFP1 Hu cAMP) | EC50 [1] | EC50 (Test A EC50, RXFP1 Hu cAMP)
COc1cc(F)c(-c2ccc(C(=O)O)c(F)c2)cc1C(=O)N[C@H]1[C@@H](C(=O)Nc2cccc(S(=O)(=O)C(F)(F)F)c2)[C@@H]2C=C[C@H]1C2 (racemic) [Example 232] | 108% | – | –
COc1cc(F)c(-c2cnc([C@@H]3C[C@H]3C(=O)O)cn2)cc1C(=O)N[C@@H]1[C@H]2CC[C@H](C2)[C@@H]1C(=O)Nc1cccc(S(=O)(=O)C(F)(F)F)c1 (single isomer, unassigned) [Example 264, (1R*,2R*)-2-(5-(2-Fluoro-4-methoxy-5-(((1S,2R,3S,4R)-3-((3-((trifluoromethyl)sulfonyl)phenyl)carbamoyl)bicyclo[2.2.1]heptan-2-yl)carbamoyl)phenyl)pyrazin-2-yl)cyclopropane-1-carboxylic acid] | 101% | 82 nM | –
CC1(CNC(=O)[C@H]2[C@@H]3CC[C@@H](C3)[C@H]2NC(=O)c2ccc(F)c(O[C@H]3CC[C@@](C)(C(=O)O)CC3)c2)CCC1 [Example 400] | 91% | – | 180 nM
COc1cc(C#N)c(O[C@H]2CC[C@@](C)(C(=O)O)CC2)cc1C(=O)N[C@@H]1[C@H]2CC[C@H](C2)[C@@H]1C(=O)NCc1cccc(C)c1 [Example 115] | 94% | 220 nM | –
COc1cc(F)c(-c2ccc(C(=O)O)cn2)cc1C(=O)N[C@H]1[C@@H](C(=O)Nc2cccc(S(=O)(=O)C(F)(F)F)c2)[C@@H]2C=C[C@H]1C2 (racemic) [Example 278] | 104% | – | –
COc1cc(F)c(O[C@H]2CC[C@@H](C(=O)O)CC2)cc1C(=O)N[C@@H]1[C@@H]2C[C@@H]([C@@H](O)[C@H]2O)[C@@H]1C(=O)Nc1cccc(S(=O)(=O)C(F)(F)F)c1 [Example 494] | 90% | 6900 nM | –
COc1cc(F)c(OC2CCCC(C(=O)O)C2)cc1C(=O)N[C@@H]1[C@H]2CC[C@H](C2)[C@@H]1C(=O)Nc1cccc(S(=O)(=O)C(F)(F)F)c1 (single isomer, unassigned) [Example 446] | 98% | 900 nM | –
O=C(O)c1ccc(-c2cc(C(=O)N[C@H]3[C@@H](C(=O)Nc4cccc(S(=O)(=O)C(F)(F)F)c4)[C@@H]4C=C[C@H]3C4)ccc2F)cc1 (racemic) [Example 305, rac-2′-Fluoro-5′-(((1R,2R,3S,4S)-3-((3-((trifluoromethyl)sulfonyl)phenyl)carbamoyl)bicyclo[2.2.1]hept-5-en-2-yl)carbamoyl)-[1,1′-biphenyl]-4-carboxylic acid] | – | > 40000 nM | –

Continued, in another order:

Test A Sinf (RXFP1 Hu cAMP) | EC50 [1] | Compound | EC50 (Test A EC50, RXFP1 Hu cAMP)
109% | 76 nM | COc1cc(F)c(O[C@H]2CC[C@@](C)(C(=O)O)CC2)cc1C(=O)N[C@@H]1[C@H]2CC[C@H](C2)[C@@H]1C(=O)NCC1(C(F)(F)F)CCC1 [Example 613] | –
99% | 36 nM | COc1cc(C#N)c(O[C@H]2CC[C@@](C)(C(=O)O)CC2)cc1C(=O)N[C@H]1[C@@H](C(=O)NCC2(C)CCC2)[C@H]2C=C[C@@H]1CC2 (racemic) [Example 469, (1R,4s)-4-(2-Cyano-4-methoxy-5-(((1RS,2SR,3RS,4SR)-3-(((1-methylcyclobutyl)methyl)carbamoyl)bicyclo[2.2.2]oct-5-en-2-yl)carbamoyl)phenoxy)-1-methylcyclohexane-1-carboxylic acid] | –
104% | 140 nM | COc1cc(F)c(O[C@H]2CC[C@@](CO)(C(=O)O)CC2)cc1C(=O)NC1C2CCC(O2)C1C(=O)NCC1(C)CCC1 (single isomer, unassigned) [Example 532, (1R,4s)-4-(2-Fluoro-4-methoxy-5-(((1S*,2S*,3R*,4R*)-3-(((1-methylcyclobutyl)methyl)carbamoyl)-7-oxabicyclo[2.2.1]heptan-2-yl)carbamoyl)phenoxy)-1-(hydroxymethyl)cyclohexane-1-carboxylic acid] | –
